Assay results published in US6525059B1, “Substituted pyrazoles as p38 kinase inhibitors” (G. D. Searle & Company, priority 1998, dated 2003).
pIC50: −log10 of the molar value.

Assays:
TNF-α = experiment: LPS stimulation of TNF production by U937 cells; assay type: cell-based, human; conditions: Homo sapiens, U-937, @ 1.0 uM; read-out: U937 Cell % inhib @ conc.
Method in brief: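 PMA-differentiated human U937 cells (20 ng/ml PMA, 24 h, then 24-48 h rest) at 2 million cells/ml, 0.1% DMSO final, stimulated with E. coli LPS (100 ng/ml final) for 4 h at 37° C. TNF-α in medium measured by ELISA; IC50 in μM.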

human p38 kinase alpha = molecular target: T1, human p38 kinase alpha (Homo sapiens, UniProt Q16539); experiment: p38 kinase in vitro assay, phosphorylation of biotinylated PHAS-I with gamma 32P-ATP; assay type: biochemical; conditions: read-out: P38 alpha kinase IC50
T1 construct: The coding region of the human p38a cDNA was obtained by PCR-amplification from RNA isolated from the human monocyte cell line THP.1; GST (N); made in house; host or cells: E. coli DH10B
T1 sequence (Q16539 whole entry): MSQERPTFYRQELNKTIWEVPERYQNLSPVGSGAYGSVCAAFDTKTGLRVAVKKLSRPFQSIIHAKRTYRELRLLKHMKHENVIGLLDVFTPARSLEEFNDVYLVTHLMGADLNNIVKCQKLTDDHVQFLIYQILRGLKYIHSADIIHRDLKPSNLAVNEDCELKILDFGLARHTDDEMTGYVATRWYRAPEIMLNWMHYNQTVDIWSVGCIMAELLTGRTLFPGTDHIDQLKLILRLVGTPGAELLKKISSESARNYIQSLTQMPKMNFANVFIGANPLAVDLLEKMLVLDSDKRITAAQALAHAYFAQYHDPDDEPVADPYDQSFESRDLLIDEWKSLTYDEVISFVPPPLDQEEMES
Method in brief: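 MKK6-activated human p38α phosphorylates biotinylated PHAS-I with γ-32P-ATP in 25 mM HEPES pH 7.5, 10 mM Mg acetate, 50 μM unlabeled ATP, 1% DMSO, 30 °C for 1 h or overnight. Compounds at 100–0.001 μM (10-fold steps, triplicate); substrate captured on streptavidin filter plates and counted by scintillation.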

pIC50 (human p38 kinase alpha)	SMILES	inhibition at 1 µM (TNF-α)
6.27	C[C@@H](NC(=O)Nc1ccc(F)cc1)c1[nH]nc(-c2ccc(F)cc2)c1-c1ccncc1 [Example B-0406]	35%
6.12	C[C@@H](NC(=O)N(C)C)c1[nH]nc(-c2ccc(F)cc2)c1-c1ccncc1 [Example B-0407]	27%
6.30	CNC(=O)N[C@H](C)c1[nH]nc(-c2ccc(F)cc2)c1-c1ccncc1 [Example B-0408]	50%
6.21	Cc1cccc(C)c1NC(=O)N[C@H](C)c1[nH]nc(-c2ccc(F)cc2)c1-c1ccncc1 [Example B-0411]	50%
6.62	C=CCNC(=O)N[C@H](C)c1[nH]nc(-c2ccc(F)cc2)c1-c1ccncc1 [Example B-0412]	48%
6.74	CCCNC(=O)N[C@H](C)c1[nH]nc(-c2ccc(F)cc2)c1-c1ccncc1 [Example B-0413]	55%
6.27	C[C@@H](NC(=O)N[C@H](C)c1[nH]nc(-c2ccc(F)cc2)c1-c1ccncc1)c1ccccc1 [Example B-0414]	25%
6.66	C[C@@H](NC(=O)Nc1cccc(F)c1)c1[nH]nc(-c2ccc(F)cc2)c1-c1ccncc1 [Example B-0418]	27%
6.74	C[C@@H](NC(=O)Cc1cccs1)c1[nH]nc(-c2ccc(F)cc2)c1-c1ccncc1 [Example B-0423]	33%
7.08	C[C@@H](NC(=O)C(C)(C)C)c1[nH]nc(-c2ccc(F)cc2)c1-c1ccncc1 [Example B-0424]	32%
6.59	CCCOC(=O)N[C@H](C)c1[nH]nc(-c2ccc(F)cc2)c1-c1ccncc1 [Example B-0425]	54%
6.20	C[C@@H](NC(=O)[C@H]1CCCN1)c1[nH]nc(-c2ccc(F)cc2)c1-c1ccncc1 [Example B-0427]	39%
6.57	CC(C)OC(=O)N[C@H](C)c1[nH]nc(-c2ccc(F)cc2)c1-c1ccncc1 [Example B-0429]	45%
6.68	CC(=O)Nc1ccc(S(=O)(=O)N[C@H](C)c2[nH]nc(-c3ccc(F)cc3)c2-c2ccncc2)cc1 [Example B-0431]	64%
6.92	CC(NS(=O)(=O)CC12CCC(CC1=O)C2(C)C)c1[nH]nc(-c2ccc(F)cc2)c1-c1ccncc1 (stereo not drawn) [Example B-0434]	65%
5.67	Cc1cc(C)c(S(=O)(=O)N[C@H](C)c2[nH]nc(-c3ccc(F)cc3)c2-c2ccncc2)c(C)c1 [Example B-0439]	65%
6.10	C[C@@H](NS(=O)(=O)c1cccc2ccccc12)c1[nH]nc(-c2ccc(F)cc2)c1-c1ccncc1 [Example B-0441]	58%
5.70	C[C@@H](NS(=O)(=O)c1cccc2cccnc12)c1[nH]nc(-c2ccc(F)cc2)c1-c1ccncc1 [Example B-0443]	71%
6.11	CC(C)c1ccc(S(=O)(=O)N[C@H](C)c2[nH]nc(-c3ccc(F)cc3)c2-c2ccncc2)cc1 [Example B-0446]	80%
6.72	Cc1c(Cl)cccc1S(=O)(=O)N[C@H](C)c1[nH]nc(-c2ccc(F)cc2)c1-c1ccncc1 [Example B-0447]	71%
6.08	C[C@@H](NS(=O)(=O)c1ccc(F)cc1Cl)c1[nH]nc(-c2ccc(F)cc2)c1-c1ccncc1 [Example B-0449]	81%

pIC50 (human p38 kinase alpha)	SMILES	inhibition at 1 µM (TNF-α)
6.59	C[C@@H](NS(=O)(=O)c1ccccc1C#N)c1[nH]nc(-c2ccc(F)cc2)c1-c1ccncc1 [Example B-0450]	81%
6.15	C[C@@H](NS(=O)(=O)c1cc(Cl)c(Cl)s1)c1[nH]nc(-c2ccc(F)cc2)c1-c1ccncc1 [Example B-0452]	75%
6.33	C[C@@H](NS(=O)(=O)c1c(Cl)cccc1Cl)c1[nH]nc(-c2ccc(F)cc2)c1-c1ccncc1 [Example B-0453]	75%
5.74	CCCCOc1ccc(S(=O)(=O)N[C@H](C)c2[nH]nc(-c3ccc(F)cc3)c2-c2ccncc2)cc1 [Example B-0456]	67%
7.05	COc1ccc(OC)c(S(=O)(=O)N[C@H](C)c2[nH]nc(-c3ccc(F)cc3)c2-c2ccncc2)c1 [Example B-0457]	81%
7.48	C[C@@H](NS(=O)(=O)c1ccccc1C(F)(F)F)c1[nH]nc(-c2ccc(F)cc2)c1-c1ccncc1 [Example B-0458]	70%
7.28	C[C@@H](NS(=O)(=O)c1ccccc1Cl)c1[nH]nc(-c2ccc(F)cc2)c1-c1ccncc1 [Example B-0463]	95%
7.08	C[C@@H](NS(=O)(=O)c1ccc(Cl)c(Cl)c1)c1[nH]nc(-c2ccc(F)cc2)c1-c1ccncc1 [Example B-0465]	98%
7.51	Cc1ccc(C)c(S(=O)(=O)N[C@H](C)c2[nH]nc(-c3ccc(F)cc3)c2-c2ccncc2)c1 [Example B-0468]	93%
7.25	Cc1ccccc1S(=O)(=O)N[C@H](C)c1[nH]nc(-c2ccc(F)cc2)c1-c1ccncc1 [Example B-0469]	92%
7.20	COc1ccc(C)cc1S(=O)(=O)N[C@H](C)c1[nH]nc(-c2ccc(F)cc2)c1-c1ccncc1 [Example B-0470]	92%
7.57	C[C@@H](NS(=O)(=O)c1cccc(C(F)(F)F)c1)c1[nH]nc(-c2ccc(F)cc2)c1-c1ccncc1 [Example B-0471]	97%
6.72	C[C@@H](NS(=O)(=O)[C@@]12CC[C@H](CC1=O)C2(C)C)c1[nH]nc(-c2ccc(F)cc2)c1-c1ccncc1 [Example B-0472]	54%
5.83	C[C@@H](NS(=O)(=O)c1cccc2nonc12)c1[nH]nc(-c2ccc(F)cc2)c1-c1ccncc1 [Example B-0477]	96%
7.47	COc1ccc(Cl)cc1S(=O)(=O)N[C@H](C)c1[nH]nc(-c2ccc(F)cc2)c1-c1ccncc1 [Example B-0478]	87%
6.92	C[C@@H](NS(=O)(=O)c1ccc(CNC(=O)c2ccccc2)s1)c1[nH]nc(-c2ccc(F)cc2)c1-c1ccncc1 [Example B-0480]	88%
6.01	Cc1c(C)c(S(=O)(=O)N[C@H](C)c2[nH]nc(-c3ccc(F)cc3)c2-c2ccncc2)c(C)c2c1OC(C)(C)CC2 [Example B-0482]	68%
6.24	C[C@@H](NS(=O)(=O)c1ccc(-c2ccccn2)s1)c1[nH]nc(-c2ccc(F)cc2)c1-c1ccncc1 [Example B-0483]	68%
6.62	C[C@@H](NS(=O)(=O)c1cn(C)cn1)c1[nH]nc(-c2ccc(F)cc2)c1-c1ccncc1 [Example B-0486]	80%
6.21	C[C@@H](NS(=O)(=O)c1ccc(S(=O)(=O)c2ccccc2)s1)c1[nH]nc(-c2ccc(F)cc2)c1-c1ccncc1 [Example B-0488]	88%
6.52	C[C@@H](NS(=O)(=O)c1ccccc1S(C)(=O)=O)c1[nH]nc(-c2ccc(F)cc2)c1-c1ccncc1 [Example B-0489]	80%
